From ChEMBL document CHEMBL4376834, “Discovery of 4H-Chromen-4-one Derivatives as a New Class of Selective Rho Kinase (ROCK) Inhibitors, which Showed Potent Activity in ex Vivo Diabetic Retinopathy Models” (J Med Chem, 2019)

How the values were obtained:
[1] = target: cGMP-dependent protein kinase 1 (Homo sapiens, UniProt Q13976); assay: Inhibition of recombinant full length human PKG1alpha using RRRLSFAEPG as substrate incubated for 40 mins in presence of [gamma-33P]ATP and 10 uM ATP by radiometric scintillation counting analysis
cGMP-dependent protein kinase 1, sequence (Q13976 whole entry): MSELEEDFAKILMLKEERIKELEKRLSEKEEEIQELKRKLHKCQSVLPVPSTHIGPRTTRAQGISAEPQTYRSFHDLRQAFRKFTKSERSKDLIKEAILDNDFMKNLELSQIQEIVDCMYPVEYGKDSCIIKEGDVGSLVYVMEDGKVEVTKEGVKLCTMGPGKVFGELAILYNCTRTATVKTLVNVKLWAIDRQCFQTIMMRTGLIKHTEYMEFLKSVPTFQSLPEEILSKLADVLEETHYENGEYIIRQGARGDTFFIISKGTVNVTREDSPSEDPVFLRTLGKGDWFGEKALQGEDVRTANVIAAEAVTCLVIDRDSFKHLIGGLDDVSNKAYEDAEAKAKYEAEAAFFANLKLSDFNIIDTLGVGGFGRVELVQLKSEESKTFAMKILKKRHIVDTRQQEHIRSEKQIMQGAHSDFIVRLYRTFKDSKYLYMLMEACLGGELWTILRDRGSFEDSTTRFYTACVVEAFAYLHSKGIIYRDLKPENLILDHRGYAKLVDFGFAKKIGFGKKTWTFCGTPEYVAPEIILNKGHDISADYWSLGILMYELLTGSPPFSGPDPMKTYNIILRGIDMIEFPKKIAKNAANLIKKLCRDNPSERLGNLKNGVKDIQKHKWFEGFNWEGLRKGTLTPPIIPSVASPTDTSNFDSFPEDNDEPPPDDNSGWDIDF

[2] = target: Serine/threonine-protein kinase BRSK1 (Homo sapiens, UniProt Q8TDC3); assay: Inhibition of recombinant human BRSK1 ( 2 to end residues) using KKKVSRSGLYRSP substrate incubated for 40 mins in presence of [gamma-33ATP] by radiometric scintillation counting analysis
[3] = target: Casein kinase I isoform gamma-1 (Homo sapiens, UniProt Q9HCP0); assay: Inhibition of recombinant human CK1gamma1(25 to 355 residues) using KRRRALS(p)VAS as substrate incubated for 40 mins in presence of [gamma-33ATP] by radiometric scintillation counting analysis
Casein kinase I isoform gamma-1, sequence (Q9HCP0 whole entry, the tested form may be a part, canonical isoform): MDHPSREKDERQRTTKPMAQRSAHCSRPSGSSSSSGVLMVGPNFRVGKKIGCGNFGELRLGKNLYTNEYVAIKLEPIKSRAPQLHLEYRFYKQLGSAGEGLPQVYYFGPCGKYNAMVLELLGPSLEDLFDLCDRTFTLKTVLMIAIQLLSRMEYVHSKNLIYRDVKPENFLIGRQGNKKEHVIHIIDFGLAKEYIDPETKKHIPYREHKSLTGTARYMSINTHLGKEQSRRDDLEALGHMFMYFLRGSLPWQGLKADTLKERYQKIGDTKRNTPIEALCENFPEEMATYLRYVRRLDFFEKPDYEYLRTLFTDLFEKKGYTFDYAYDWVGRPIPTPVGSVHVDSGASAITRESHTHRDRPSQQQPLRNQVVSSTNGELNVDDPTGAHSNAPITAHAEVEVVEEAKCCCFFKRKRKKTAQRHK

[4] = target: Death-associated protein kinase 1 (Homo sapiens, UniProt P53355); assay: Inhibition of recombinant human DAPK1 (1 to 296 residues) using KKLNRTLSFAEPG as substrate incubated 40 mins in presence of [gamma-33ATP] by radiometric scintillation counting analysis
Myotonin-protein kinase = Myotonin-protein kinase (Homo sapiens, UniProt Q09013); assay: Inhibition of recombinant human DMPK (1 to 549 residues) using KKSRGDYMTMQIG as substrate after 40 mins in presence of [gamma-33ATP] by radiometric scintillation counting analysis
[5] = target: Serine/threonine-protein kinase 17A (Homo sapiens, UniProt Q9UEE5); assay: Inhibition of recombinant full length human DRAK1 using KKLNRTLSFAEPG as substrate after 40 mins in presence of [gamma-33ATP] by radiometric scintillation counting analysis
[6] = target: Protein kinase C beta type (Homo sapiens, UniProt P05771); assay: Inhibition of recombinant human PKCbeta2 (2 to end residues) using histone H1 as substrate incubated for 40 mins in presence of [gamma33P]ATP by radiometric scintillation counting analysis
Protein kinase C beta type, sequence (P05771 whole entry, the tested form may be a part): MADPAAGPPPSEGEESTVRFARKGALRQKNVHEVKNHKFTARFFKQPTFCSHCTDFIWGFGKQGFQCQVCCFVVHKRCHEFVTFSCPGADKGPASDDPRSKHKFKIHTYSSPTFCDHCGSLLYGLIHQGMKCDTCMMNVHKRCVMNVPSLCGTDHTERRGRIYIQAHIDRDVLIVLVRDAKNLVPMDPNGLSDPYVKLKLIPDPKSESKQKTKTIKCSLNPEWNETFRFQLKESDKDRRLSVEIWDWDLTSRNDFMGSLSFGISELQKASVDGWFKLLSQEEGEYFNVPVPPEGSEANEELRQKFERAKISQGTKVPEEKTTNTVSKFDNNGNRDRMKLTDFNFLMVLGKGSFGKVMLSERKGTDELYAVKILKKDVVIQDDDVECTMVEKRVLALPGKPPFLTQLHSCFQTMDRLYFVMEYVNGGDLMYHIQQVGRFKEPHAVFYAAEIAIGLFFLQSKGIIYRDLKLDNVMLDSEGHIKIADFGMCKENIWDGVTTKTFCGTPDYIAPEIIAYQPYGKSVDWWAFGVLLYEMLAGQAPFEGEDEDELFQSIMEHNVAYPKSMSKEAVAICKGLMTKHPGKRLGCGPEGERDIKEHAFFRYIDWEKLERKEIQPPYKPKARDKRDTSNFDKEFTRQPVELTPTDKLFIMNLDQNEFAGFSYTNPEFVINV

[7] = target: Serine/threonine-protein kinase Nek1 (Homo sapiens, UniProt Q96PY6); assay: Inhibition of recombinant human NEK1 (1 to 505 residues) using RLGRDKYKTLRQI as substrate measured after 40 mins in presence of [gamma33P]ATP by radiometric scintillation counting analysis
Serine/threonine-protein kinase Nek1, sequence (Q96PY6 whole entry, the tested form may be a part): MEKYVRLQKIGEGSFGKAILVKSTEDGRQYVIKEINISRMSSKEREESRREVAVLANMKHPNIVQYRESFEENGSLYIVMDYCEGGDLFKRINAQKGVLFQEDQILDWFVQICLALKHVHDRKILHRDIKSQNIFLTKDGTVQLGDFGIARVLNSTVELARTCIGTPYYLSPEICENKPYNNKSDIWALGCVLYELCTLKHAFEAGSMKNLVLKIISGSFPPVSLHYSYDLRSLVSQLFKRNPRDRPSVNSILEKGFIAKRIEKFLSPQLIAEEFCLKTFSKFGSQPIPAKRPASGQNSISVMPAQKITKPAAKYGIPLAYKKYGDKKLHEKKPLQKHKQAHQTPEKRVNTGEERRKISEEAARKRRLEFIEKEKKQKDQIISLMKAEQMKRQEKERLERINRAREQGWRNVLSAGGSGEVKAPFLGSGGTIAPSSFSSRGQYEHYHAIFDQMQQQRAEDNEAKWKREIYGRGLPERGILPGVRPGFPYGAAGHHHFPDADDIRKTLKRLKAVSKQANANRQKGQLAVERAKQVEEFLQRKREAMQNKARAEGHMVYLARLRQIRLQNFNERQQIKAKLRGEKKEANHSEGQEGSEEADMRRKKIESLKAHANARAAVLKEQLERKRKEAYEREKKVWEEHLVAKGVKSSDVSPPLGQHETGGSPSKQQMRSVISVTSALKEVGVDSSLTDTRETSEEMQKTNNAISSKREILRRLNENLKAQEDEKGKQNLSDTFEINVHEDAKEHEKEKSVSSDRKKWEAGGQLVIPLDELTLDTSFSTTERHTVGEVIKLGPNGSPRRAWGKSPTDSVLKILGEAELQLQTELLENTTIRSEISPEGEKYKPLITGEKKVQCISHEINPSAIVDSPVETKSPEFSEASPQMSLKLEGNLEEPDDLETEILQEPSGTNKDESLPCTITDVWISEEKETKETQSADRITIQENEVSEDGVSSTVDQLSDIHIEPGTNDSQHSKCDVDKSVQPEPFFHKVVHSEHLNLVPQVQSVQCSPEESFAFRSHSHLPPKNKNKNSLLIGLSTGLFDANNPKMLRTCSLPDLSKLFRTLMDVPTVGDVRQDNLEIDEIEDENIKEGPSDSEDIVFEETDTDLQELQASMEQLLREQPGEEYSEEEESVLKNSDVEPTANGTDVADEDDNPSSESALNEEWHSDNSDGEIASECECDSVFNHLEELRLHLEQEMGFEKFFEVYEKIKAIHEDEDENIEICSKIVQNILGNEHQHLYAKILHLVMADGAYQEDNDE

[8] = target: Serine/threonine-protein kinase Nek6 (Homo sapiens, UniProt Q9HC98); assay: Inhibition of recombinant human NEK6 (2 to end residues) using FLAKSFGSPNRAYKK as substrate measured after 40 mins in presence of [gamma33P]ATP by radiometric scintillation counting analysis
Serine/threonine-protein kinase Nek6, sequence (Q9HC98 whole entry): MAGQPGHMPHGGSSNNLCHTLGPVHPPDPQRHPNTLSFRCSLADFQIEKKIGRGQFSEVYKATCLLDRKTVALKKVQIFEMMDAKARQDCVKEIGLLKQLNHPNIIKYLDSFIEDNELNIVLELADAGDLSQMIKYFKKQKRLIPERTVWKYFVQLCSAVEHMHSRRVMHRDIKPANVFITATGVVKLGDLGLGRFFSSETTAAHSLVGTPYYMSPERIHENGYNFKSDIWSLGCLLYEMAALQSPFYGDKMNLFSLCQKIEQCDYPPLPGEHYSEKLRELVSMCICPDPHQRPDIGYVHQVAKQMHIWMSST

[9] = target: Serine/threonine-protein kinase 3 (Homo sapiens, UniProt Q13188); assay: Inhibition of recombinant human MST2 (2 to end residues) using myelin basic protein as substrate measured after 40 mins in presence of [gamma33P]ATP by radiometric scintillation counting analysis
Serine/threonine-protein kinase 3, sequence (Q13188 whole entry): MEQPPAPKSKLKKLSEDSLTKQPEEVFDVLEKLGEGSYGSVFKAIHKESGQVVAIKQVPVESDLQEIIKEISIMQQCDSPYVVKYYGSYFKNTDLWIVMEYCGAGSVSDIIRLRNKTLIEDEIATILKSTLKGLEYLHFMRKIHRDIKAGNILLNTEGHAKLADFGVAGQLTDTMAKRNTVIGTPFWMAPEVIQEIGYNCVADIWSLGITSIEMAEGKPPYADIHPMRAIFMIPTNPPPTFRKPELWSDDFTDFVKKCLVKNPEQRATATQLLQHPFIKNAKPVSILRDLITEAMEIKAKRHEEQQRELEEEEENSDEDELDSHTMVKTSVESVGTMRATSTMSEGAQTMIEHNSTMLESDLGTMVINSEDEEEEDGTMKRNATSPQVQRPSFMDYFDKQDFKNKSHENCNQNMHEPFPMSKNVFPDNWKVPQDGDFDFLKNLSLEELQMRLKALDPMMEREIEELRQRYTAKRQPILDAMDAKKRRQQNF

[10] = target: Serine/threonine-protein kinase pim-2 (Homo sapiens, UniProt Q9P1W9); assay: Inhibition of recombinant human Pim2 (2 to end residues) using RSRHSSYPAGT as substrate incubated for 40 mins in presence of [gamma33P]ATP by radiometric scintillation counting analysis
Serine/threonine-protein kinase pim-2, sequence (Q9P1W9 whole entry): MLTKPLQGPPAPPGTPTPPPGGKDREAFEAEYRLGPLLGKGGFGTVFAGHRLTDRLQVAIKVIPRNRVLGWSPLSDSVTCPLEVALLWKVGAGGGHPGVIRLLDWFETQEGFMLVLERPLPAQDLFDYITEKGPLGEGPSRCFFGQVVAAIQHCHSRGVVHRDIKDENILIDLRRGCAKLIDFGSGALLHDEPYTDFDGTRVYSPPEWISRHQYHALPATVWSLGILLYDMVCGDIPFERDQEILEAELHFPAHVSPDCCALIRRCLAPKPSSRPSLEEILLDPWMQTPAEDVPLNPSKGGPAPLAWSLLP

[11] = target: Serine/threonine-protein kinase PAK 5 (Homo sapiens, UniProt Q9P286); assay: Inhibition of recombinant human PAK5 (425 to end residues) using RRRLSFAEPG as substrate measured after 40 mins in presence of [gamma33P]ATP by radiometric scintillation counting analysis
Serine/threonine-protein kinase PAK 5, sequence (Q9P286 whole entry, the tested form may be a part): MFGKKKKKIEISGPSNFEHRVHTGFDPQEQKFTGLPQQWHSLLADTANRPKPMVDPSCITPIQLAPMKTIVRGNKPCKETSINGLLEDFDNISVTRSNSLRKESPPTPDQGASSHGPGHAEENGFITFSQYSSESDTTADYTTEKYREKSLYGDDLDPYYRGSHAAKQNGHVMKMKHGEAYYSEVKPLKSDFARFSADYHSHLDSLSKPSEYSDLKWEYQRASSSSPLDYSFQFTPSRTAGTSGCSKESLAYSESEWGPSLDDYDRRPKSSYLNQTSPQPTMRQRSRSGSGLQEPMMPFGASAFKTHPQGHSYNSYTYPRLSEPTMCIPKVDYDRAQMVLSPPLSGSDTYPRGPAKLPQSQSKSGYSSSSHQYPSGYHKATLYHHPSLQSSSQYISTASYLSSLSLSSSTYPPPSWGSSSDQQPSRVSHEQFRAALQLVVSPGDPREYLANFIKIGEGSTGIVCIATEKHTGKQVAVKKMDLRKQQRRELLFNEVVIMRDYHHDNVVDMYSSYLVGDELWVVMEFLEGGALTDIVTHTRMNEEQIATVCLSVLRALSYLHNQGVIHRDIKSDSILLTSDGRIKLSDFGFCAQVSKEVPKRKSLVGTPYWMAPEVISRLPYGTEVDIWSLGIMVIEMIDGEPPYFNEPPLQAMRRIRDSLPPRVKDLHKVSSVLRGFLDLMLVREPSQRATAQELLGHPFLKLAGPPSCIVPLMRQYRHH

Ephrin type-A receptor 2 = Ephrin type-A receptor 2 (Homo sapiens, UniProt P29317); assay: Inhibition of recombinant human EphA2 (596 to 900 residues) using poly(Glu, Tyr) 4:1 as substrate after 40 mins in presence of [gamma-33ATP] by radiometric scintillation counting analysis
[12] = target: G protein-coupled receptor kinase 5 (Homo sapiens, UniProt P34947); assay: Inhibition of recombinant full length human GRK5 using casein as substrate after 40 mins in presence of [gamma-33ATP] by radiometric scintillation counting analysis
[13] = target: Mitogen-activated protein kinase kinase kinase kinase 1 (Homo sapiens, UniProt Q92918); assay: Inhibition of human recombinant HPK1 (1 to 346 residues) using myelin basic protein as substrate after 40 mins by [gamma-33ATP] radiometric assay
[14] = target: Mitogen-activated protein kinase 8 (Homo sapiens, UniProt P45983); assay: Inhibition of recombinant full length human JNK1alpha1 using ATF2 as substrate after 40 mins by [gamma-33ATP] by radiometric scintillation counting analysis
[15] = target: Serine/threonine-protein kinase N2 (Homo sapiens, UniProt Q16513); assay: Inhibition of recombinant human PRK2 (501 to end residues) using AKRRRLSSLRA as substrate incubated for 40 mins in presence of [gamma33P]ATP by radiometric scintillation counting analysis
[16] = target: Mitogen-activated protein kinase 14 (Homo sapiens, UniProt Q16539, T106M); assay: Inhibition of recombinant human full length SAPK2a T106M mutant using myelin basic protein as substrate incubated for 40 mins in presence of [gamma33P]ATP by radiometric scintillation counting analysis
[17] = Inhibition of recombinant human TIE2 Q939H/Q940H/Y897S triple mutant (771 to end residues) using EFPIYDFLPAKKK as substrate incubated for 40 mins in presence of [gamma33P]ATP by radiometric scintillation counting analysis
[18] = target: Tyrosine-protein kinase TXK (Homo sapiens, UniProt P42681); assay: Inhibition of recombinant human Txk (256 to end residues) using GEEPLYWSFPAKK as substrate incubated for 40 mins in presence of [gamma33P]ATP by radiometric scintillation counting analysis
[19] = target: Serine/threonine-protein kinase ULK1 (Homo sapiens, UniProt O75385); assay: Inhibition of recombinant human ULK1 (1 to 314 residues) using casein as substrate incubated for 40 mins in presence of [gamma33P]ATP by radiometric scintillation counting analysis
[20] = target: Serine/threonine-protein kinase ULK2 (Homo sapiens, UniProt Q8IYT8); assay: Inhibition of recombinant human ULK2 (1 to 306 residues) using casein as substrate incubated for 40 mins in presence of [gamma33P]ATP by radiometric scintillation counting analysis
[21] = target: Serine/threonine-protein kinase ULK3 (Homo sapiens, UniProt Q6PHR2); assay: Inhibition of recombinant human full length ULK3 using casein as substrate incubated for 40 mins in presence of [gamma33P]ATP by radiometric scintillation counting analysis
[22] = target: PI3-kinase p110-alpha/p85-alpha (Homo sapiens, UniProt P42336, H1047R); assay: Inhibition of recombinant human full length PI3K p110alpha/p85alpha H1047R mutant using phosphatidylinositol 4,5-bisphosphate as substrate incubated for 40 mins in presence of [gamma33P]ATP by radiometric scintillation counting analysis
Ephrin type-A receptor 8 = Ephrin type-A receptor 8 (Homo sapiens, UniProt P29322); assay: Inhibition of recombinant human EPhA8 (615 to 911 residues) at 10 uM using KTFCGTPEYLAPE as substrate incubated for 40 mins in presence of [gamma-33PATP] by radiometric scintillation counting analysis

Measured: IC50

CN(C)c1ccc(C(=O)Nc2cccc(NC(=O)COc3ccc4c(=O)ccoc4c3)c2)cc1
> 10 µM: [2] | [3] | [4] | Myotonin-protein kinase | [5] | [6] | [7] | [8] | [9] | [10] | [11] | Ephrin type-A receptor 2 | [12] | [13] | [14] | [15] | [16] | [17] | [18] | [19] | [20] | [21] | [22] | Ephrin type-A receptor 8
0.517 µM: [1]
